Several values for one entry are separate records, joined by “and”; a condition that tells them apart may be missing. Equal values may be shown once. Marks after values point to notes of the source that are not given here.
Columns and labels:
[1] = tested on: Bcap-37 human breast cancer; experiment: Bcap-37 human breast cancer xenograft in nude mice, dosing from 24 h after transplantation (Example 3); type: in vivo; details: for tumor inhibition rate %: vs solvent control
Description: Both male and female mice were used. […] Test control. […] Preparation and Administration of Test Compounds. […] For human tumor xenograft model, all used materials, including animal food, animal cage, supporting materials and apparatus contacted by animals, were high-pressure sterilized. Nude mice were maintained in laminar flow shelves under SPF condition. After tumor transplantation, mouse weight and tumor size in each compound dosage group were dynamically monitored and plotted.

[2] = tested on: ao10/17 human ovarian cancer; experiment: ao10/17 human ovarian cancer xenograft in nude mice (Example 4); type: in vivo; details: 20 mg/kg iv x7 qd; 0 d (beginning)
mouse Lewis lung cancer = experiment: In vivo antitumor efficacy, mouse Lewis lung cancer model, Example 3 (ACEA100108); details: for Inhibition rate (%): vs solvent control
Experimental: For human tumor xenograft models, cancer cells were passed twice in vivo before being transplanted into the nude mice for the study. Cultured human cancer cells in flask were first xenograft-transplanted in immunodeficient nude mice. After the cancer cells grew to a tumor of certain sizes in the nude mice, the tumor was removed form the nude mice and tumor tissues were dissected. The cell suspensions were prepared from the dissected tumor tissue and transplanted back to immunodeficient nude mice again (i.e. the second passage of cancer cells in human cancer xenograft-transplanted model). After the cancer cells grew to certain size, the tumor was removed from nude mice and the tumor tissues were dissected. The cell suspensions were prepared from dissected tissues and were used for the study of human cancer xenograft models described here.
Both male and female mice were used. However, for each experiment, animals of same sex were used. For the mouse transplanted tumor model, the numbers of animals tested were as follows: 10 for each dose group, 10 for positive control group and 20 for negative control group. For human tumor xenograft model, the numbers of animals tested were as follows: 6 for each dose group, 6 for positive control group and 12 for negative control group.
Test control. For negative control, each mouse was administered intravenously with the solvent only having the same volume and same concentration as those used in high dose ACEA100108 test, once a day, for 7 consecutive days. […] In a reference group, DBTS was administered intravenously at 50 mg/kg, once a day for 7 consecutive days.
Preparation and Administration of Test Compounds. […] Each time before use, this solution was diluted in normal saline to achieve desired ACEA100108 concentrations. Each mouse (about 20 g in weight) was administered intravenously with the compound solution of 0.5 mL at a controlled injection speed of 0.5 ml/0.5 min. 24 hrs after the tumor transplantation, intravenous injections of compound solutions into carrier mice were performed once a day, for consecutive 7 or 10 days.
Preparation of Tumor Cells for Transplantation and Determination of Compound Efficacy. To prepare the cancer cells for mouse Lewis lung cancer model, human breast cancer xenograft model and human colon cancer xenograft model, the fast growing tumors were first removed from the transplanted tumor mice. The tumor tissues were dissected and tumor cell suspensions were prepared in normal saline to have a concentration of 2-4×10^7 cells/ml. 0.2 ml of cell suspension was subcutaneously injected into the axillary region (right-side) of each mouse. […] Between two and four weeks after transplantation, mice were sacrificed and the transplanted tumors were removed from experimental mice.

[3] = tested on: A549 human lung cancer cells; experiment: Cell-cycle distribution by propidium iodide flow cytometry in A549 cells; type: cell-based; details: 25 uM, 24 hrs, vs DMSO
Experimental: Another in vitro assay may be used to evaluate the effect of compounds in arresting the cell cycle progression. More specifically, a test compound is added to cells of certain cell lines in a concentration-dependent manner. After cells are incubated for certain specific length of time, cells are stained using propidium iodide and are used for flow cytometric assessment. The cell populations of sub-G0/G1, G0/G1, S and G2/M phases are determined. All above in vitro assays are cell-based, single-time point (or multiple-time points using multiple plates) end-point assays.
Microtubules are extremely important in the process of mitosis, during which the duplicated chromosomes of a cell are separated into two identical sets before cleavage of the cell into two daughter cells. […] As consequence, cells will be arrested at G2/M phase.
In briefly, A549 cells were seeded at a density of 500,000 cells in 60 mm tissue culture dishes. Approximately 18 hours later the cells were treated with the indicated concentrations of anti-mitotic compounds and allowed to further incubate for 24 hours. The cells were washed in PBS, trypsinized, counted and fixed in ice-cold 70% methanol and stored at 4° C. The cells were washed with PBS, stained with propidium iodide and kept on ice until flow cytometry analysis.

[4] = tested on: purified bovine brain tubulin; experiment: In vitro microtubule dynamics (dynamic instability) assay, video microscopy; type: biochemical
Experimental: Tubulin Purification and Microtubule Dynamics Assays. Tubulin was purified, as described in the literature (“Kinetic stabilization of microtubule dynamic instability in vitro by vinblastine”, Toso, R. J., Jordan, […]., Matsumoto, B. and Wilson, L., Biochemistry, 1993, 32, 1285-1293). Briefly, microtubule-associated protein-rich bovine brain microtubule protein was prepared by three cycles of assembly and disassembly. Tubulin was purified from other microtubule proteins by elution through a Whatman P-11 phosphocellulose column equilibrated in PEM50 (50 mM Pipes, 1 mM MgSO4, 1 mM EGTA, 0.1 mM GTP). Purified tubulin (>99% pure) was drop-frozen in liquid nitrogen and stored at -70° C. […] The dynamics of individual microtubules were recorded at 37° C. using differential interference contrast enhanced video microscopy. The ends were designated as plus or minus on the basis of the growth rate, the number of microtubules that grew at opposite ends of the seeds, and the relative lengths of the microtubules (Panda, D., Goode, […]. and Wilson, L., Kinetic stabilization of microtubule dynamics at steady state by tau and microtubule-binding domains of tau, Biochemistry, 1995, 34, 11117-11127; Walker, R. A., O'Brien, […]., Voter, W. A., Erickson, H. P. and Salmon, E. D., Dynamic instability of individual microtubules analyzed by video light microscopy: rate constants and transition frequencies, J. Cell Biol. 1988, 107, 1437-1448). Plus ends were analyzed for 10 minutes per slide during the steady-state phase of polymerization ( 45 min after initiation of polymerization). Life histories of individual microtubules were collected as described by Panda et al. 1995 (Panda, D., Goode, […]. and Wilson, L., Kinetic stabilization of microtubule dynamics at steady state by tau and microtubule-binding domains of tau, Biochemistry, 1995, 34 11117-11127) with modifications. Data points were collected at 1-3 s intervals. […] Average rates, lengths and durations are the averages of independent events. The catastrophe frequency was calculated by dividing the number of shortening events by the total time of growth and attenuation tracked, and rescue frequency was calculated by dividing the number of rescue events by the total time of shortening tracked. To control for experimental error, each condition was filmed over multiple days using at least two distinct tubulin/GTP mixtures (2-3 slides each). No gross variation in microtubule dynamics was observed between mixtures or slides of a given condition. The concentration of drug used in dynamic instability assays was chosen by initially observing microtubules stabilized with half the concentration used in microtubule assembly assays.

[5] = 8 mg/kg iv x7 qd, 7 days after transplantation
[6] = 20 mg/kg iv x7 qd, 7 days after transplantation
[7] = 50 mg/kg iv x7 qd, 7 days after transplantation
[8] = shortening events, ACEA100108 .2uM

Fc1ccc(CSSSCc2ccc(F)cc2)cc1 [ACEA100108, Di(p-fluorobenzyl)trisulfide]
Mice with palpable tumor / total mice [1, 5]: 4/6†† | Tumor volume (cm^3) [1, 5]: 0.01 cm^3 | Tumor volume (cm^3) ([1]; 8 mg/kg iv x7 qd, 14 d): 0.068 ± 0.02 cm^3 | Tumor volume (cm^3) ([1]; 8 mg/kg iv x7 qd, 21 d): 0.214 ± 0.04 cm^3 | Tumor volume (cm^3) ([1]; 8 mg/kg iv x7 qd, 24 d (end)): 0.985 cm^3 and 0.985 ± 0.4 cm^3 | TV inhibition rate % T/C ([1]; 8 mg/kg/d iv x7 qd): 56.15% | Tumor weight ([1]; 8 mg/kg/d iv x7 qd): 1.18 ± 0.23 g | Body weight of mice ([1]; 8 mg/kg/d iv x7 qd, 0 day (beginning)): 18.0 g and 18 ± 0.6 g | Body weight of mice ([1]; 8 mg/kg/d iv x7 qd, 7 day): 19.5 ± 1 g | Body weight of mice ([1]; 8 mg/kg/d iv x7 qd, 14 d): 21.5 ± 1 g | Body weight of mice ([1]; 8 mg/kg/d iv x7 qd, 21 d): 22.3 ± 1.6 g | Body weight of mice ([1]; 8 mg/kg/d iv x7 qd, 24 d (end)): 23.0 g and 23 ± 1.5 g | tumor inhibition rate % ([1]; 8 mg/kg/d iv x7 qd): 31.40% | Mice with palpable tumor / total mice [1, 6]: 5/6†† | Tumor volume (cm^3) [1, 6]: 0.01 cm^3 | Tumor volume (cm^3) ([1]; 20 mg/kg iv x7 qd, 14 d): 0.049 ± 0.03 cm^3 | Tumor volume (cm^3) ([1]; 20 mg/kg iv x7 qd, 21 d): 0.167 ± 0.03 cm^3 | Tumor volume (cm^3) ([1]; 20 mg/kg iv x7 qd, 24 d (end)): 0.488 cm^3 and 0.488 ± 0.07 cm^3 | TV inhibition rate % T/C ([1]; 20 mg/kg/d iv x7 qd): 27.82% | Tumor weight ([1]; 20 mg/kg/d iv x7 qd): 0.755 ± 0.09 g | Body weight of mice ([1]; 20 mg/kg/d iv x7 qd, 0 day (beginning)): 17.6 g and 17.6 ± 0.8 g | Body weight of mice ([1]; 20 mg/kg/d iv x7 qd, 7 day): 19.7 ± 1 g | Body weight of mice ([1]; 20 mg/kg/d iv x7 qd, 14 d): 20.8 ± 1 g | Body weight of mice ([1]; 20 mg/kg/d iv x7 qd, 21 d): 22.7 ± 1.2 g | Body weight of mice ([1]; 20 mg/kg/d iv x7 qd, 24 d (end)): 23.0 g and 23 ± 1.2 g | tumor inhibition rate % ([1]; 20 mg/kg/d iv x7 qd): 56.10% | Mice with palpable tumor / total mice [1, 7]: 3/6†† | Tumor volume (cm^3) [1, 7]: 0.01 cm^3 | Tumor volume (cm^3) ([1]; 50 mg/kg iv x7 qd, 14 d): 0.023 ± 0.02 cm^3 | Tumor volume (cm^3) ([1]; 50 mg/kg iv x7 qd, 21 d): 0.112 ± 0.03 cm^3 | Tumor volume (cm^3) ([1]; 50 mg/kg iv x7 qd, 24 d (end)): 0.310 cm^3 and 0.31 ± 0.05 cm^3 | TV inhibition rate % T/C ([1]; 50 mg/kg/d iv x7 qd): 17.67% | Tumor weight ([1]; 50 mg/kg/d iv x7 qd): 0.617 ± 0.09 g | Body weight of mice ([1]; 50 mg/kg/d iv x7 qd, 0 day (beginning)): 18.1 g and 18.1 ± 1.1 g | Body weight of mice ([1]; 50 mg/kg/d iv x7 qd, 7 day): 18.8 ± 0.8 g | Body weight of mice ([1]; 50 mg/kg/d iv x7 qd, 14 d): 20.5 ± 1 g | Body weight of mice ([1]; 50 mg/kg/d iv x7 qd, 21 d): 22.2 ± 1.2 g | Body weight of mice ([1]; 50 mg/kg/d iv x7 qd, 24 d (end)): 23.0 g and 23 ± 1.2 g | tumor inhibition rate % ([1]; 50 mg/kg/d iv x7 qd): 64.13% | Body weight of mice [2]: 17.2 g and 17.2 ± 1.2 g | Animal No. beginning/end (survival) (mouse Lewis lung cancer; 6.25 mg/kg/d iv x7 qd): 10/10 | Animal weight (g) beginning (mouse Lewis lung cancer; 6.25 mg/kg/d iv x7 qd): 20.3 g | Animal weight (g) end (mouse Lewis lung cancer; 6.25 mg/kg/d iv x7 qd): 24.4 g | Tumor weight (mouse Lewis lung cancer; 6.25 mg/kg/d iv x7 qd): 1.78 ± 0.24 g | Inhibition rate (%) (mouse Lewis lung cancer; 6.25 mg/kg/d iv x7 qd): 34.32% | Animal No. beginning/end (survival) (mouse Lewis lung cancer; 25 mg/kg/d iv x7 qd): 10/10 | Animal weight (g) beginning (mouse Lewis lung cancer; 25 mg/kg/d iv x7 qd): 20.1 g | Animal weight (g) end (mouse Lewis lung cancer; 25 mg/kg/d iv x7 qd): 24.2 g | Tumor weight (mouse Lewis lung cancer; 25 mg/kg/d iv x7 qd): 1.21 ± 0.22 g | Inhibition rate (%) (mouse Lewis lung cancer; 25 mg/kg/d iv x7 qd): 55.35% | Animal No. beginning/end (survival) (mouse Lewis lung cancer; 100 mg/kg/d iv x7 qd): 10/8 | Animal weight (g) beginning (mouse Lewis lung cancer; 100 mg/kg/d iv x7 qd): 20.6 g | Animal weight (g) end (mouse Lewis lung cancer; 100 mg/kg/d iv x7 qd): 23.4 g | Tumor weight (mouse Lewis lung cancer; 100 mg/kg/d iv x7 qd (text: administered only 5 times because of toxicity)): 1.08 ± 0.17 g | Inhibition rate (%) (mouse Lewis lung cancer; 100 mg/kg/d iv x7 qd (text: only 5 times because of toxicity)): 60.15% | Cell population at G2/M phase [3]: increased significantly | % time spent in attenuation phase ([4]; ACEA100108 .2uM): 69% | % time spent in growth phase ([4]; ACEA100108 .2uM): 30% | % time spent in shortening phase ([4]; ACEA100108 .2uM): 1% | Dynamicity ([4]; ACEA100108 .2uM): 0.83 um/min | Frequency of transitions ± SD: Catastrophes ([4]; ACEA100108 .2uM): 0.09 ± 0.03 events/min | Frequency of transitions ± SD: Rescues ([4]; ACEA100108 .2uM): 9.4 ± 3.0 events/min | Frequency of transitions ± SD: Total ([4]; ACEA100108 .2uM): 0.32 ± 0.06 events/min | Growth Rate ± SEM ([4]; ACEA100108 .2uM): 1.59 ± 0.1 um/min | Mean duration of attenuation ± SEM ([4]; ACEA100108 .2uM): 3.74 ± 0.7 | Shortening Rate ± SEM ([4]; ACEA100108 .2uM): 35.8 ± 4.3 um/min | Duration of Event ([4]; growth events, ACEA100108 .2uM): 2.04 ± 0.3 min | Length of Excursion ([4]; growth events, ACEA100108 .2uM): 3.24 ± 0.3 um | Effect on duration of growth events ([4]; plus ends, steady state): increased the duration of growth events | Effect on length of growth events ([4]; plus ends, steady state): increased the duration of growth events and the average length of growth events | Effect on length of shortening events ([4]; plus ends, steady state): strong effect upon the length of shortening events | Duration of Event [4, 8]: 0.11 ± 0.02 min | Length of Excursion [4, 8]: 3.79 ± 0.3 um
